Measured values from patent EP0934745B1, “Use of androsterone derivatives for inhibiting DNA binding of ap-1 and airway smooth muscle proliferation” (CHARLOTTE-MECKLENBURG HOSPITAL doing business as Carolinas …, priority 1998, dated 1999).

Experiments:
BEAS-2B cells = assay: Interleukin-8 secretion by cultured human respiratory epithelium (ELISA); assay type: cell-based; conditions: 1 hr pretreatment
Experimental: J. Physiol. […] J. Physiol. […] Statistical Analysis. […] Significance was assumed at p < 0.05.
After 24 hours (for TNF stimulated cells) or 6 hours (for ROFA stimulated cells) media was collected and centrifuged to remove debris. […] Results are means ± standard errors of 4-6 experiments per treatment group. DMSO vehicle, as an antioxidant, reduces IL-8 secretion (a known effect) but BrEA inhibits much more profoundly.

c-fos = assay: Expression of c-fos protein (immunoblot) and mRNA (RT-PCR) after FBS stimulation; assay type: cell-based, rat; conditions: pretreated 2 hours with 10 µM (Figures 7A-7C)
Experimental: To determine if 16α-BrEA impaired expression of early response genes important for cellular proliferation, confluent 75-cm^2 Petri dishes of airway smooth muscle cells were growth arrested by incubation for 24 hours in DMEM with 0.5% FBS. Monolayers were pretreated 2 hours with 10 µM 16α-BrEA or DMSO vehicle, and stimulated by exposure to DMEM with 10% FBS for 30 minutes. Cells were then lysed and c-fos mRNA was measured by the reverse transcriptase-polymerase chain reaction, as described below. To study whether levels of c-fos protein were affected, confluent monolayers on 6-well plates were growth arrested for 24 hours in DMEM with 0.5% FBS. Cells were then pretreated 2 hours with 16α-BrEA or DMSO vehicle and stimulated with 10% FBS in DMEM for 15, 30 and 60 minutes. Cells were then lysed and c-fos protein was assayed by immunoblotting as described below.
For measurement of c-fos protein, monolayers were placed on ice, washed twice with cold DPBS, scraped into 0.5 ml boiling buffer (10% [vol/vol] glycerol and 2% [wt/vol] sodium dodecyl sulfate [SDS] in 83 mM Tris, pH 6.8) and sonicated. Aliquots were removed for protein determination, bromophenol blue and β-mercaptoethanol were added and lysates were boiled and stored as outlined above. […]

[1] = test system: airway smooth muscle cells; assay: Cytotoxicity: lactate dehydrogenase activity in cell supernatants; assay type: cell-based, rat; conditions: confluent cells incubated 24 hours; compared with DMSO vehicle (Figure 4B)
Experimental: To study the effect of DHEA and 16α-BrEA on activation of AP-1, a secondary response important in cellular growth and proliferation (Angel and Karin, (1991), supra) confluent monolayers of airway smooth muscle in 75-cm^2 Petri dishes were growth arrested for 24 hours in 0.5% FBS and DMEM and pretreated 2 hours with DHEA, 16α-BrEA or DMSO vehicle. Cells were then stimulated with 10% FBS in DMEM for 6 hours, nuclear protein was harvested, and electrophoretic mobility shift assays were performed as described below to determine if treatment with DHEA and 16α-BrEA impaired DNA binding of AP-1. Measurement of Cytotoxicity and Apoptosis. To assess for cytotoxicity, DHEA or 16α-BrEA were added to wells of airway smooth muscle cells previously grown to confluence in DMEM and 10% FBS. After 24 hours, media was microfuged 5 minutes and supernatant was assayed for lactate dehydrogenase activity using a commercially available assay (DG-1340K from Sigma). Cells were washed twice in DPBS and exposed to trypan blue dye (0.04% in Hanks' balanced salt solution). Cell counts were performed in five random fields using a 0.01-cm^2 ocular grid to quantitate the average number of damaged or dead cells that accumulated dye. […]

Structure (SMILES): C[C@]12CC[C@H](O)C[C@@H]1CC[C@@H]1[C@@H]2CC[C@]2(C)C(=O)[C@H](Br)C[C@@H]12 [16α-BrEA, 16α-bromoepiandrosterone]
- IL-8 (BEAS-2B cells; ROFA Stimulated BEAS Cells (ROFA 50 µg/ml, 6 hr), 25 µM, ROFA + DMSO 410 ± 18): 123 ± 5 pg/mL
- IL-8 (BEAS-2B cells; TNF Stimulated BEAS Cells (TNFα 40 ng/ml, 24 hr), 2 µM, TNF + DMSO 93 ± 14): 104 ± 31 pg/mL
- IL-8 (BEAS-2B cells; TNF Stimulated BEAS Cells (TNFα 40 ng/ml, 24 hr), 10 µM, TNF + DMSO 93 ± 14): 52 ± 18 pg/mL
- IL-8 (BEAS-2B cells; TNF Stimulated BEAS Cells (TNFα 40 ng/ml, 24 hr), 50 µM, TNF + DMSO 93 ± 14): 27 ± 2 pg/mL
- stimulation of c-fos protein or mRNA in response to 10% FBS (c-fos): did not reduce
- LDH activity in supernatant [1]: does not increase LDH activity
